The values that follow come from patent US4489091A, “Antilipemic and anti-inflammatory compositions containing sulfonate derivatives” (Taiho Pharmaceutical Company Limited, priority 1980, dated 1984).

One series is described as follows: Acute toxicity. The note with it: rat, in vivo. The source says: Six-week-old male Wistar rats weighing 180 to 200 g are used, 5 rats in each group. Each compound of the invention is suspended in a 30% aqueous solution of polyethylene glycol 6000 and orally given to the rat at the dosage shown in Table 2. The animals are checked for poisoning, body weight and survival to determine the LD50 value.

A further series concerns cholesterol. Kind of series: Antilipemic effect: percent total cholesterol inhibition in plasma of rats given an olive oil-cholesterol mixture. The series is classed as in vivo, male Wistar rats. The note with it: for inhibition in vivo at 100 mg/kg: read-out: Anti-lipemic effect, CS (percent cholesterol inhibition). Here is the method:
(§1) The above compounds of this invention are tested by the following methods for antilipemic effect and acute toxicity. In the column of antilipemic effect in the table, the asterisked values indicate the effect achieved by orally giving 200 mg/kg of the compounds concerned, and the unmarked values, the effect attained by orally giving 100 mg/kg. In the same column, "TG" stands for percent triglycerides inhibition and "CS" percent cholesterol inhibition.
(§2) Seven-week-old male Wistar rats weighing 200 to 220 g are used, 5 rats in each group.
(§3) Each compound of the invention (100 mg or 200 mg) is dissolved in 10 ml of an olive oil-cholesterol mixture (containing 15% of cholesterol). The mixture containing the compound is orally given to the rat with a probe at a dose of 10 ml/kg. Two or 8 hours thereafter, 6 ml of whole blood is withdrawn from the descending aorta of the rat under ether anesthesia with a syringe containing heparin. The blood is centrifuged at 5° C. and 3000 r.p.m. to obtain the plasma. The plasma collected after the lapse of 2 hours is used for determining the triglycerides content, and the plasma obtained 8 hours later for determining the total cholesterol content, using a triglycerides measuring kit (trade mark "Triglycerides-B Test Wako," product of Wako Junyaku Co., Ltd., Japan) and a total cholesterol measuring kit (trade mark "Cholesterol Test Wako," product of the same), respectively. The olive oil-cholesterol mixture containing no compound is similarly given to a control group, while no treatment is conducted for a normal group. The triglycerides and total cholesterol contents in the plasma are also determined for these groups in the same manner as is the case with the test groups.
(§4) The present hyperlipidemia inhibition achieved by the present compound is given by [formula] in which A is the triglycerides (cholesterol) content of the control group, B is the triglycerides (cholesterol) content of the normal group, and C is the triglycerides (cholesterol) content of the group to which the present compound is given.

The test system of a further series is triglycerides. Kind of series: Antilipemic effect: percent triglycerides inhibition in plasma of rats given an olive oil-cholesterol mixture. The series is classed as in vivo, male Wistar rats. Conditions: for inhibition in vivo at 100 mg/kg: read-out: Anti-lipemic effect, TG (percent triglycerides inhibition). Here is the method: as §1, §2, §3, §4
The mark [1] stands for this setting: oral 100 mg/kg, plasma 8 hours after dosing, Wistar rat.
Where [2] appears, read: oral 100 mg/kg, plasma 2 hours after dosing, Wistar rat.
Where [3] appears, read: oral, six-week-old male Wistar rats, suspended in 30% aqueous polyethylene glycol 6000, read-out: LD50.

Where two headings read alike, the source gives them in different places. Bounds are passed on as bounds.

Usually LD50 stands for the dose at which mortality reaches 50%. In turn, `Cc1cc(C)c(S(=O)(=O)OCC(=O)CCCC(C)C)c(C)c1` [Compound 161] had an LD50 in “Acute toxicity” (po) above 3000 mg/kg. In addition, the inhibition in vivo at 100 mg/kg with cholesterol (setting [1]) came to 56%; with triglycerides (setting [2]), 51%.
On to `Cc1cc(C)c(S(=O)(=O)OCC(=O)CC(C)(C)C)c(C)c1` [Compound 82], for which the LD50 in the series “Acute toxicity” (po) is above 3000 mg/kg. Also, the figures for the inhibition in vivo at 100 mg/kg with cholesterol (setting [1]) and with triglycerides (setting [2]) were 66% and 56%, respectively.
Compound `CCCCC(C)C(=O)COS(=O)(=O)c1ccc(OCC)cc1` (stereo not drawn) [Compound 139] came in with an LD50 in “Acute toxicity” (po) above 3000 mg/kg. Moreover, the inhibition in vivo at 100 mg/kg in the series on cholesterol (setting [1]) stood at 87%; in the series on triglycerides (setting [2]), 84%.
In “Acute toxicity” (po), `CCC(=O)COS(=O)(=O)c1ccc(C)cc1` [Compound 15] gave an LD50 above 1500 mg/kg. The inhibition in vivo at 100 mg/kg amounted to 41% in the series with cholesterol (setting [1]) and 40% with triglycerides (setting [2]).
With `CCCCC(=O)COS(=O)(=O)c1c(C)cc(C)cc1C` [Compound 74], the LD50 in “Acute toxicity” (po) was above 3000 mg/kg. For the same compound, the inhibition in vivo at 100 mg/kg with cholesterol (setting [1]) was found to be 87%; with triglycerides (setting [2]) it was 77%.
For `CCOc1ccc(S(=O)(=O)OCC(=O)CC(C)C)cc1` [Compound 132] the same measures were above 2000 mg/kg, 90% and 87%.
As for `CCCCOc1ccc(S(=O)(=O)OCC(=O)CCC)cc1` [Compound 53], the 50% lethal dose (LD50) in the series “Acute toxicity” (setting [3]) was above 2000 mg/kg. In addition, the inhibition in vivo at 100 mg/kg in the series on cholesterol (Rattus norvegicus, po, 8 h) stood at 42%; in the series on triglycerides (Rattus norvegicus, po, 2 h), 61%.
Compound `CCCCC(C)C(=O)COS(=O)(=O)c1c(C)cc(C)cc1C` (stereo not drawn) [Compound 155] returned an LD50 in the series “Acute toxicity” (po) above 3000 mg/kg. For the same compound, the inhibition in vivo at 100 mg/kg worked out at 71% in the series on cholesterol (setting [1]) and 67% in the series on triglycerides (setting [2]).
In turn, `CCCCCC(=O)COS(=O)(=O)c1c(C)cc(C)cc1C` [Compound 75] had an LD50 in the series “Acute toxicity” (po) above 3000 mg/kg. The results for the inhibition in vivo at 100 mg/kg in the series on cholesterol (setting [1]) and with triglycerides (setting [2]) were 60% and 53%, respectively.
Take `CCCCCCC(=O)COS(=O)(=O)c1c(C)cc(C)cc1C` [Compound 76]: the LD50 in the series “Acute toxicity” (po) was above 4000 mg/kg. Also, the figures for the inhibition in vivo at 100 mg/kg with cholesterol (setting [1]) and in the series with triglycerides (setting [2]) were 62% and 55%, respectively.
In turn, `CC(C)CCC(=O)COS(=O)(=O)c1ccccc1` [Compound 12] gave an LD50 in “Acute toxicity” (po) above 2500 mg/kg. Also, the inhibition in vivo at 100 mg/kg came to 63% in the series with cholesterol (setting [1]) and 95% in the series with triglycerides (setting [2]).
As to `CCCCC(CCCC)C(=O)COS(=O)(=O)c1ccc(OCC)cc1` [Compound 141], the LD50 in “Acute toxicity” (po) is above 3000 mg/kg. Besides, the inhibition in vivo at 100 mg/kg with cholesterol (setting [1]) came out at 66%; with triglycerides (setting [2]), 68%.
`CCC(CC)C(=O)COS(=O)(=O)c1c(C)cc(C)cc1C` [Compound 148] displayed an LD50 in the series “Acute toxicity” (po) above 3000 mg/kg. Also, the inhibition in vivo at 100 mg/kg in the series on cholesterol (setting [1]) was 80%; with triglycerides (setting [2]), 96%.
`CCCCC(=O)COS(=O)(=O)c1ccccc1C` [Compound 30] had an LD50 in the series “Acute toxicity” (po) above 1500 mg/kg. In addition, the results for the inhibition in vivo at 100 mg/kg in the series with cholesterol (setting [1]) and in the series on triglycerides (setting [2]) were 36% and 70%, respectively.
In the same order, the values of `CCC(CC)CCC(=O)COS(=O)(=O)c1c(C)cc(C)cc1C` [Compound 160] are above 4000 mg/kg, 40% and 42%.
In the same order, the values of `CCCCC(CC)C(=O)COS(=O)(=O)c1ccc(C)cc1` (stereo not drawn) [Compound 26] are above 4000 mg/kg, 72% and 85%.
In the series “Acute toxicity” (po), `CCOc1ccc(S(=O)(=O)OCC(=O)C(CC)CC)cc1` [Compound 131] returned a median lethal dose (LD50) above 2000 mg/kg. In addition, the results for the inhibition in vivo at 100 mg/kg with cholesterol (setting [1]) and in the series with triglycerides (setting [2]) were 97% and 110%, respectively.
Consider `CCCCC(=O)COS(=O)(=O)c1ccc(C)cc1` [Compound 17], for which the LD50 in “Acute toxicity” (po) was above 2000 mg/kg. In addition, the values for the inhibition in vivo at 100 mg/kg in the series with cholesterol (setting [1]) and in the series with triglycerides (setting [2]) were 33% and 61%, respectively.
For `COc1ccc(S(=O)(=O)OCC(=O)CCC(C)C)cc1` [Compound 40], the LD50 in the series “Acute toxicity” (po) is above 2000 mg/kg. Besides, the inhibition in vivo at 100 mg/kg in the series with cholesterol (setting [1]) stood at 70%; in the series on triglycerides (setting [2]) it was 72%.
As for `Cc1cc(C)c(S(=O)(=O)OCC(=O)CCC(C)C)c(C)c1` [Compound 83], the LD50 in the series “Acute toxicity” (po) was above 3000 mg/kg. Also, the inhibition in vivo at 100 mg/kg in the series on cholesterol (setting [1]) is 71%; in the series on triglycerides (setting [2]) it was 68%.
In “Acute toxicity” (po), `CCC(=O)COS(=O)(=O)c1c(C)cc(C)cc1C` [Compound 72] displayed a 50% lethal dose (LD50) above 3000 mg/kg. Also, the values for the inhibition in vivo at 100 mg/kg in the series with cholesterol (setting [1]) and in the series on triglycerides (setting [2]) were 90% and 91%, respectively.
Consider `CCCC(=O)COS(=O)(=O)c1ccc(C)cc1` [Compound 16, 2-oxopentyl-p-toluenesulfonate], for which the LD50 in “Acute toxicity” (setting [3]) was above 1500 mg/kg. For the same compound, the inhibition in vivo at 100 mg/kg is 31% in the series with cholesterol (setting [1]) and 64% in the series on triglycerides (setting [2]).
On to `CCCC(CCC)C(=O)COS(=O)(=O)c1c(C)cc(C)cc1C` [Compound 152], for which the LD50 in the series “Acute toxicity” (po) was above 4000 mg/kg. The figures for the inhibition in vivo at 100 mg/kg with cholesterol (setting [1]) and in the series with triglycerides (setting [2]) were 69% and 78%, respectively.
`C=CCCC(=O)COS(=O)(=O)c1ccc(OC)cc1` [Compound 41] displayed an LD50 in “Acute toxicity” (po) above 2000 mg/kg. For the same compound, the inhibition in vivo at 100 mg/kg in the series on cholesterol (setting [1]) worked out at 61%; in the series with triglycerides (setting [2]) it was 82%.
For `CCCC(=O)COS(=O)(=O)c1ccc(OC)cc1` [Compound 34] the same measures were above 1500 mg/kg, 68% and 72%.
In turn, `CCOc1ccc(S(=O)(=O)OCC(=O)C(C)CC)cc1` (stereo not drawn) [Compound 49] showed an LD50 in the series “Acute toxicity” (po) above 2000 mg/kg. For the same compound, the inhibition in vivo at 100 mg/kg in the series on cholesterol (setting [1]) turned out to be 96%; with triglycerides (setting [2]), 90%.
Regarding `CCCC(=O)COS(=O)(=O)c1ccccc1C` [Compound 29, 2-oxopentyl-o-toluene sulfonate], the LD50 in the series “Acute toxicity” (setting [3]) was above 1500 mg/kg. Further, the inhibition in vivo at 100 mg/kg amounted to 30% in the series on cholesterol (setting [1]) and 73% in the series on triglycerides (setting [2]).
For `CCCC(=O)COS(=O)(=O)c1ccccc1` [Compound 6, 2-oxopentylbenzene sulfonate], the LD50 in the series “Acute toxicity” (setting [3]) is above 1000 mg/kg. In addition, the figures for the inhibition in vivo at 100 mg/kg in the series on cholesterol (setting [1]) and in the series on triglycerides (setting [2]) were 53% and 90%, respectively.
Turning to `CCCC(C)C(=O)COS(=O)(=O)c1ccc(OCC)cc1` (stereo not drawn) [Compound 133], in “Acute toxicity” (po), the LD50 is above 4500 mg/kg. For the same compound, the inhibition in vivo at 100 mg/kg in the series with cholesterol (setting [1]) was found to be 91%; with triglycerides (setting [2]) it was 111%.
As for `CCCCCCC(=O)COS(=O)(=O)c1ccc(OCC)cc1` [Compound 46, 2-oxooctyl-p-ethoxybenzene sulfonate], the LD50 in “Acute toxicity” (setting [3]) was above 3000 mg/kg. The inhibition in vivo at 100 mg/kg amounted to 62% in the series with cholesterol (setting [1]) and 65% in the series with triglycerides (setting [2]).
`CCCC(=O)COS(=O)(=O)c1ccc(Cl)cc1` [Compound 64]: the LD50 in “Acute toxicity” (po) is above 1000 mg/kg. Further, the figures for the inhibition in vivo at 100 mg/kg with cholesterol (setting [1]) and in the series with triglycerides (setting [2]) were 56% and 82%, respectively.
For `CCC(CC)C(=O)COS(=O)(=O)c1ccc(C)cc1` [Compound 121] the same measures were above 3000 mg/kg, 66% and 63%.
In the case of `CCCCCC(=O)COS(=O)(=O)c1ccc(OCCCC)cc1` [Compound 55], the LD50 in the series “Acute toxicity” (setting [3]) is above 3000 mg/kg. In the series on cholesterol (oral 200 mg/kg (asterisked values), plasma 8 hours after dosing, Wistar rat), the “Anti-lipemic effect, CS (percent cholesterol inhibition), asterisked” value came out at 40%. For the same compound, in the series on triglycerides (Rattus norvegicus, po, 2 h, read-out: Anti-lipemic effect, TG (percent triglycerides inhibition), asterisked), the inhibition in vivo at 200 mg/kg was 69%.
